From publication PMC8179567, “Target-templated de novo design of macrocyclic D-/L-peptides: discovery of drug-like inhibitors of PD-1” (Chemical Science, 2021)
Square brackets hold non-standard residues; d marks the D form. Peptide text beside a SMILES is read from it.

What was measured:
[1] = biological target: T1, extracellular domain of human PD-1 (Homo sapiens, UniProt Q15116, C93S); assay: Surface plasmon resonance (SPR), PD-1 immobilised on CM5 chip; format: binding; conditions: analytes injected at 10, 100 and 1000 µM in PBS, 25 °C, PBS-T pH 7.4, reference channel subtracted; KD not calculable (fast kinetics, no saturation)
T1 construct: ectodomain of human PD-1 (aa 33- 150) was cloned into pET-24d; made in house
T1 sequence (Q15116 33-150 C93S limits assumed): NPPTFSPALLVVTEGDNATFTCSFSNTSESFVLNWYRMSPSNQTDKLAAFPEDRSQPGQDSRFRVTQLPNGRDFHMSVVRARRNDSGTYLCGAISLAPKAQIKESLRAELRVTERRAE
Excerpt: Seven de novo designed cyclic peptides were in total selected for experimental characterization (PD-i1-7). To this end, peptide chains were elongated on a Wang-linker modified polystyrene resin (anchoring through the Asp side-chain carboxylic acid). This chemical strategy enabled the head-to-tail cyclisation to be readily performed on-resin, and a final deprotection/cleavage step yielded the already cyclized final peptide (Scheme S1 ^†). To test for their bioactivity, the extracellular domain of human PD-1 was recombinantly expressed in E. coli and refolded from inclusion bodies. The purified protein was then immobilized by free amine coupling on a CM5 sensor chip surface, and surface plasmon resonance (SPR) measurements were performed. […] In particular, we selected microscale thermophoresis (MST) as it has been validated with this system[30] and allows the quantification of interactions in solution, which mimics physiological conditions. To this end, PD-1 was first fluorescently labelled and then titrated with increasing amounts of PD-i3 and PD-i6. […] Mutation of L-Trp, which serves as PD-1 anchor for the in silico design process, largely abolished binding to the target (Fig. S9A ^†). […]

[2] = biological target: T2, 15N-labelled PD-1 extracellular domain (Homo sapiens, UniProt Q15116, C93S); assay: 1H,15N HSQC NMR mapping of interaction site; format: binding; conditions: 15N-PD-1 60 µM, peptide 1 mM, 25 °C, pH 6.4; I/Io > 20% considered significant; residues adjacent to the CC′ loop
T2 construct: ectodomain of human PD-1 (aa 33- 150) was cloned into pET-24d; made in house
T2 sequence (Q15116 33-150 C93S limits assumed): as above
Protocol: To further elucidate the interaction site of PD-i3 and PD-i6, we expressed the extracellular domain of PD-1 uniformly labelled in ^15N and performed high-resolution NMR spectroscopy assays.
Microscale thermophoresis (MST)
MST was used to calculate the binding affinities in solution of PD-i3 and PD-i 6 for the extracellular domain of human PD-1. To this end, PD-1 was fluorescently labelled by reaction of the Lys side chains with Alexa-647-NHS (6 eq) for 3 h at 4 °C. The labelled protein was purified by size-exclusion chromatography and was diluted in PBS-T buffer (0.05% Tween 20, pH 7.4) to a final concentration of 10 nM. […]
#BE0193) as positive controls (Figure S). […] A reproducible and negative thermophoresis response was observed, which was baseline-corrected and normalized (ΔFnorm [‰]).The curves were analyzed using a standard Langmuir binding model, from which dissociations constants (K D) were determined. […]
ITC experiments were performed at 25 °C using a low-volume nano ITC calorimeter (TA instruments). […] Binding isotherms were analysed using the software provided by TA instruments, assuming a single binding site for the independent domains. […]
1H,15N HSQC spectra were recorded at 25 °C on a Bruker 600 MHz spectrometer equipped with a cryoprobe. […]
To assess the solution structures of PD-i3 and PD-i6, NMR spectra were recorded at 5 °C on a Bruker B800 MHz spectrometer equipped with a cryoprobe. […]

Row | Structure (SMILES) | SPR response on PD-1-functionalised channel [1] | Changes in PD-1 HSQC signal intensity on peptide addition [2]
1 | CC(C)[C@@H]1NC(=O)[C@@H](Cc2c[nH]c3ccccc23)NC(=O)[C@H](Cc2c[nH]c3ccccc23)NC(=O)[C@H](CC(=O)O)NC(=O)[C@@H](CCCCN)NC(=O)[C@H](C)NC(=O)[C@H](CCC(=O)O)NC(=O)[C@H]2CCCN2C1=O [PD-i6] (cyclo(A[dK]DW[dW]V[dP]E)) | distinct concentration-dependent SPR responses | significant changes in signal intensity
2 | CSCC[C@@H]1NC(=O)[C@H]([C@@H](C)O)NC(=O)[C@H](CC(=O)O)NC(=O)[C@H]2CCCN2C(=O)[C@H](Cc2ccc(O)cc2)NC(=O)[C@H](CCCNC(=N)N)NC(=O)[C@@H](CCCNC(=N)N)NC(=O)[C@@H](CCC(=O)O)NC(=O)[C@H](CC(C)C)NC(=O)[C@H](Cc2ccc(O)cc2)NC1=O [PD-i3] (cyclo(DTMYL[dE][dR]RY[dP])) | distinct concentration-dependent SPR responses | significant changes in signal intensity
